Data taken from US4430345A, “Prostaglandins” (National Research Development Corporation, priority 1979, dated 1984).

Experiments:
[1] = target: T1, human platelets (thromboxane receptor sites) (Homo sapiens, UniProt P21731); test: Human platelet system: antagonism of aggregation by 11,9-(epoxymethano) PGH2; assay type: cell-based; conditions: for Kb: against 11,9-epoxymethano analogue of PGH2, compound added 5 minutes previously, Gaddum-Schild Equation, read-out: AFFINITY CONSTANTS (KB), Human Platelets (converted)
T1 construct: Platelet-rich plasma is obtained from fresh, citrated human blood; endogenous in cells; host or cells: human platelets (platelet-rich plasma from fresh, citrated human blood)
T1 sequence (P21731 1-343): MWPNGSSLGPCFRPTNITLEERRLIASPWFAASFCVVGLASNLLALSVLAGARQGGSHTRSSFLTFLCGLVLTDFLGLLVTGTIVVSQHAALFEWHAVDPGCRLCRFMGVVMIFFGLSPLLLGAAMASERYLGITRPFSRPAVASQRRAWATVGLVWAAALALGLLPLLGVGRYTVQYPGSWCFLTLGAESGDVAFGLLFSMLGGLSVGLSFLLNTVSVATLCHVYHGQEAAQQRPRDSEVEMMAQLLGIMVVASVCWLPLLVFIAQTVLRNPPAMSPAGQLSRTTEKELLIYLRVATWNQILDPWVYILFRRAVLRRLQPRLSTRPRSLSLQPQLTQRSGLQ
Method: Platelet-rich plasma is obtained from fresh, citrated human blood. Addition of the 11,9-epoxymethano analogue of PGH2 (1×10^-7 M to 5×10^-7 M) causes immediate aggregation recorded as an increase in light transmission (600 nm). In a second experiment the individual compounds are added 5 minutes previously to addition of the PGH2 analogue. The dose of the PGH2 analogue added is then increased to a level which gives a similar response to that obtained in the absence of antagonist. The affinity constant, KB, for the compound is calculated according to the Gaddum-Schild Equation (based on Law of Mass Action).
[B]=molar concentration of compound
(§1) Results typical of those obtained for the various compounds (all of which are of the formula shown at the beginning of Example 4 except where otherwise indicated) are shown in Table 3.

[2] = tested on: rabbit aorta (thromboxane receptor sites); test: Rabbit aorta system: antagonism of contraction by 11,9-(epoxymethano) PGH2; assay type: cell-based; design: key to Rabbit Aorta, affinity constant not given: (2): Partial agonist; conditions: for Kb: Oryctolagus cuniculus, 0.5 h, Gaddum-Schild Equation, read-out: AFFINITY CONSTANTS, Rabbit Aorta (converted); for Kb / Rabbit Aorta, affinity constant not given: against 11,9-(epoxymethano) PGH2, compound added 30 minutes previously
Source text: It is believed that such inhibition is the result of the compounds being thromboxane antagonists and the activity of the compounds is for convenience hereinafter discussed in these terms. […] Structural features which tend to endow a compound with a more pure antagonist form of activity are (a) the absence of a halogen substituent, particularly at the para position, in the benzene ring of a phenoxyethyl O-substituted oxime; (b) the absence of a halogen substituent at the meta position of a benzyl O-substituted oxime; and (c) the presence of two benzene rings in the oxime substituent,these rings being located, for example, on a carbon atom joined directly to the oxygen atom of the oxime group. Some activity has also been alserved in compounds according to the present invention on guinea pig tracheal muscle.
Spiral strips of thoracic aorta are suspended in Kreb's-Henseleit solution and aerated with 95% O2 /5% CO2 at 37° C. Tension changes are recorded with a Grass FTO3 force transducer. Initially, cumulative dose response curves to 11,9-(epoxymethano) PGH2 (2×10^-9, 1×10^-8, 5×10^-8 and 2.5×10^-7 M) are obtained. In a second experiment the individual compounds are added 30 minutes previously to the addition of the series of agonist doses. Affinity constants are calculated as above.
as §1

[3] = tested on: platelets, archidonic acid; test: Platelets: block of the aggregatory action of arachidonic acid; assay type: cell-based, human; conditions: converted to TXA2 by the platelet enzyme system
α-adrenoceptors = test: Rabbit aorta strip: block of the contractile action of noradrenaline; assay type: cell-based

SMILES	Kb [1]	Kb [2]	also measured
O=C(O)CCC/C=C\C[C@@H]1[C@@H](C=NOCc2ccccc2)[C@@H]2C=C[C@H]1C2 (relative stereo)	5.26 µM	0.667 µM	–
O=C(O)CCC/C=C\C[C@@H]1[C@@H](C=NOCc2ccc(Cl)cc2)[C@@H]2C=C[C@H]1C2 (relative stereo)	4.76 µM	0.149 µM	–
O=C(O)CCC/C=C\C[C@@H]1[C@@H](C=NOC(c2ccccc2)c2ccccc2)[C@@H]2C=C[C@H]1C2 (relative stereo)	0.0196 µM	1.69 µM	–
O=C(O)CCC/C=C\C[C@@H]1[C@@H](C=NOCCOc2ccccc2)[C@@H]2C=C[C@H]1C2 (relative stereo)	20 µM	0.4 µM	–
O=C(O)CCC/C=C\C[C@@H]1[C@@H](C=NOCCOc2ccc(Cl)cc2)[C@@H]2C=C[C@H]1C2 (relative stereo)	10 µM	–	Rabbit Aorta, affinity constant not given [2]: (2)
O=C(O)CCC/C=C\C[C@@H]1[C@@H](C=NOCCOc2ccc(F)cc2)[C@@H]2C=C[C@H]1C2 (relative stereo)	25 µM	–	Rabbit Aorta, affinity constant not given [2]: (2)
O=C(O)CCC/C=C\C[C@H]1[C@H]2CC[C@H](C2)[C@@H]1C=NOCc1ccc(F)cc1 (relative stereo)	1.72 µM	0.435 µM	–
O=C(O)CCC/C=C\C[C@H]1[C@H]2CC[C@H](C2)[C@@H]1C=NOCc1cccc(C(F)(F)F)c1 (relative stereo)	–	–	Rabbit Aorta, affinity constant not given [2]: (2)
O=C(O)CCC/C=C\C[C@H]1[C@H]2CC[C@H](C2)[C@@H]1C=NOCc1cccc(Cl)c1 (relative stereo)	1.69 µM	–	Rabbit Aorta, affinity constant not given [2]: (2)
O=C(O)CCC/C=C\C[C@H]1[C@H]2CC[C@H](C2)[C@@H]1C=NOCc1ccc(Cl)cc1Cl (relative stereo)	3.57 µM	0.238 µM	–
O=C(O)CCC/C=C\C[C@H]1[C@H]2CC[C@H](C2)[C@@H]1C=NOC(c1ccccc1)c1ccccc1 (relative stereo)	0.0208 µM	5.26 µM	–
O=C(O)CCCCCC[C@H]1[C@H]2CC[C@H](C2)[C@@H]1C=NOCc1ccc(F)cc1 (relative stereo)	12 µM	–	–
CCCCCON=C[C@H]1[C@@H]2CC[C@@H](C2)[C@@H]1C/C=C\CCCC(=O)O (relative stereo) [(CH2)4 CH3]	5.88 µM	6.67 µM	–
O=C(O)CCC/C=C\C[C@@H]1[C@@H](C=NOCc2ccc(F)cc2)[C@@H]2C=C[C@H]1C2 (relative stereo) [Example 1, 5-endo-(6'-Carboxyhex-2'-Z-enyl)-6-exo-(O-p-fluorobenzyloxyiminomethyl)-bicyclo[2,2,1]hept-2Z-ene]	–	–	activity in the platelet test (in words) ([1]; 11,9-(epoxymethano) PGH2, human platelets in vitro): antagonists in the platelet test; activity in the rabbit aorta strip test (in words) ([2]; 11,9-(epoxymethano) PGH2, rabbit aorta strip): pure antagonists in the rabbit aorta strip test; block of aggregatory action of archidonic acid (in words) [3]: block the aggregatory action of archidonic acid; block of contractile action of noradrenaline (in words) (α-adrenoceptors): do not block the contractile action of noradrenaline
O=C(O)CCC/C=C\C[C@@H]1[C@@H](C=NOCc2ccc(F)cc2)[C@@H]2C=C[C@H]1C2 (relative stereo) [drawing 29]	2.5 µM	0.278 µM	–
